Measured values reported in patent US20160084820A1, “METHODS OF TREATING OR PREVENTING PERIODONTITIS AND DISEASES ASSOCIATED WITH PERIODONTITIS” (priority 2010, published 2016).
Like-named read-outs stand apart in the source and are kept apart here.

Assays:
[1] = system: nitric oxide production; assay: NO2− (nitric oxide) production, Griess reaction-based assay, macrophages; format: cell-based, mouse; conditions: 24 hours; for reversal of the inhibitory C5a effect on nitric oxide: SQ22536 200 μM, H89 5 μM, chelerythrin 5 μM, PKI 6-22 1 μM, KT5823 1 μM, C5a 50 nM
[2] = system: GSK3β Ser9-phosphorylation; assay: GSK3β Ser9 phosphorylation ELISA in macrophages; format: cell-based, mouse; conditions: PKI-6-22 1 μM; PD98059 25 μM
Procedure: PKA activity in lysates of activated cells was determined using the ProFluor™ PKA assay, according to the instructions of the manufacturer (Promega) (Hajishengallis et al., 2008, PNAS USA, 105:13532-7). Phosphorylation of GSK313 on Ser9 and total GSK3β were monitored using FACE™ GSK3β ELISA kits (Active Motif).

[3] = system: IL-12p70 production; assay: IL-12p70 induction in IFN-gamma-primed macrophages, ELISA; format: cell-based, mouse; conditions: for reversal of C5a inhibition of P. gingivalis- or LPS-induced IL-12p70: C5a 50 nM
Procedure: (§1) Induction of nitric oxide production was assessed by measuring the amount of NO2− (stable metabolite of nitric oxide) in stimulated culture supernatants using a Griess reaction-based assay kit (R&D Systems), as previously performed (Hajishengallis et al., 2008, PNAS USA, 105:13532-7). Levels of cAMP in activated cell extracts were measured using a cAMP enzyme immunoassay kit (Cayman Chemical) (Liang et al., 2007, J. Immunol., 178:4811-9). C5a-induced intracellular calcium mobilization was monitored in cells (4×10^6) loaded with 1 μM Indo 1-AM in the presence of 1 μM pluronic acid, as previously described (Ali et al., 1993, J. Biol. Chem., 268:24247-54). Calcium traces were recorded in a Perkin-Elmer fluorescence spectrometer (Model 650-19) with an excitation wavelength of 355 nm and an emission wavelength of 405 nm. Induction of cytokine production in activated cell culture supernatants or in the peritoneal fluid of infected mice was determined by ELISA using kits from eBioscience or Cell Sciences. C5a levels were measured by sandwich ELISA, employing a pair of capture and biotinylated anti-05a mAbs (BD Pharmingen), according to the manufacturer's protocol.
Whether C5a inhibits P. gingivalis-induced IL-12p70 in peritoneal macrophages was investigated. Since macrophages are generally poor producers of IL-12p70 in vitro unless primed with IFN-gamma, macrophages used in these experiments were primed with IFN-gamma (0.1 μg/ml). […] The host TLR response against P. gingivalis is predominantly mediated by TLR2, both in vitro and in vivo. Therefore, whether C5a-mediated inhibition of P. gingivalis-induced IL-12p70 could involve a C5aR-TLR2 crosstalk additionally was examined.

[4] = system: iNOS expression; assay: iNOS expression, quantitative real-time PCR, macrophages; format: cell-based, mouse; conditions: SB216763 10 μM; 8-Br-cAMP 100 μM; 4 hours
Procedure: Gene expression in resting or activated mouse macrophages was quantified using quantitative real-time PCR. Briefly, RNA was extracted from cell lysates using the PerfectPure RNA cell kit (5 Prime, Fisher) and quantified by spectrometry at 260 and 280 nm. The RNA was reverse-transcribed using the High-Capacity cDNA Archive kit (Applied Biosystems) and quantitative real-time PCR with cDNA was performed using the ABI 7500 Fast System, according to the manufacturer's protocol (Applied Biosystems). TaqMan probes, sense primers, and antisense primers for expression of a house-keeping gene (GAPDH) or iNOS (or the genes shown in FIG. 7) were purchased from Applied Biosystems.

[5] = system: phagocytosed P. gingivalis in mouse peritoneal macrophages; format: cell-based, P. gingivalis ATCC 33277
Procedure: The viability of phagocytosed P. gingivalis was monitored by an antibiotic protection-based intracellular survival assay, as previously described (Wang et al., 2007, J. Immunol., 179:2349-58). Briefly, mouse peritoneal macrophages were allowed to phagocytose P. gingivalis (MOI=10:1; 5×10^6 bacteria and 5×10^5 cells) for […] at 37° C. This was followed by washing to remove extracellular nonadherent bacteria and 1-hour treatment with antibiotics (300 μg/ml gentamicin and 200 μg/ml metronidazole) to eliminate residual or extracellular adherent bacteria. The macrophages were subsequently cultured overnight (for a total of 24 hours) or for 48 hours Immediately after, the macrophages were washed and lysed in sterile distilled water, and viable counts of internalized P. gingivalis were determined by plating serial dilutions of macrophage lysates on blood agar plates subjected to anaerobic culture.
The viability of phagocytosed P. gingivalis was monitored by an antibiotic protection-based intracellular survival assay, as previously described (Wang et al., 2007, J. Immunol., 179:2349-58)). Briefly, mouse peritoneal macrophages were allowed to phagocytose P. gingivalis (at a MOI=10:1; 5×10^6 bacteria and 5×10^5 macrophages) for 30 min at 37° C. This was followed by washing to remove extracellular nonadherent bacteria and 1-hour treatment with antibiotics (300 μg/ml gentamicin and 200 μg/ml metronidazole) to eliminate residual or extracellular adherent bacteria. The macrophages were subsequently cultured overnight for a total of 24 hours Immediately after, the macrophages were washed and lysed in sterile distilled water and viable counts of internalized P. gingivalis were determined by plating serial dilutions of macrophage lysates on blood agar plates subjected to anaerobic culture.

[6] = system: P. gingivalis; assay: Subcutaneous titanium-coil chamber model; format: in vivo, mouse; conditions: wild-type mice, 24 h post-infection
Procedure: Using the ‘chamber’ model, bacteria were injected into the lumen of a subcutaneously implanted titanium-coil chamber such that bacterial interactions with recruited inflammatory cells can be assessed accurately and quantitatively (Burns et al., 2006, J. Immunol., 177:8296-8300; Genco et al., 1991, Infect. Immun., 59:1255-63; and Graves et al., 2008, J. Clin. Periodontol., 35:89-105).

[7] = system: intracellular cAMP; assay: cAMP enzyme immunoassay in P. gingivalis-stimulated macrophages; format: cell-based, mouse; conditions: C5aRA 1 μM; thapsigargin 1 μM; EGTA 5 mM; pertussis toxin 100 ng/ml; AMD3100 1 μg/ml; C5a 50 nM; 1 hour
[8] = system: periodontal inflammatory responses; assay: Oral Pg infection, gingival IL-1beta and TNF-alpha mRNA after local C5aRA microinjection; format: in vivo, mouse
Procedure: Experiments were performed to determine an effective dose of C5aRA (PMX-53) that inhibits periodontal inflammatory responses. Briefly, 0.1, 1, or 10 μg C5aRA (or a PBS control) were administered through 1-μl microinjections (using a 28.5-gauge MicroFine needle) on the mesial of the first molar and in the papillae between first and second and third molars, on both sides of the maxilla. These treatments were repeated five times at two day-intervals Immediately following each treatment, the mice were infected orally with Pg in 2% carboxymethylcellulose vehicle (or vehicle only). One week after the last infection, the gingiva were dissected and analyzed by real-time quantitative PCR for mRNA expression of IL-1beta and TNF-alpha (selected as the most typically involved in destructive periodontal inflammation).
Because the antagonist was applied before each Pg infection treatment, this approach was considered preventive. In addition, however, it was determined if C5aRA acts in a therapeutic way (i.e., applied after infection and inflammation occurs). […] The mice were euthanized three days after the last treatment.

[9] = system: P. gingivalis-induced cytokine production; conditions: C5aRA i.p. 25 pg/mouse; 5 h post-infection
Procedure: as §1
10-12 week-old mice were infected i.p. with P. gingivalis (5×10^7 CFU) and sampled by peritoneal lavage to measure production of cytokines and enumerate recovered CFU (following anaerobic growth on blood agar plates) (Hajishengallis et al., 2008, PNAS USA, 105:13532-7), as detailed in the respective figure description.
First, it was essential to determine whether C5aR signaling can regulate P. gingivalis-induced IL-12p70 production in vivo. For this purpose, wild-type mice were i.p.-administered C5aRA followed by i.p. challenge with P. gingivalis. Mice deficient in C5aR or TLR2 were similarly challenged with P. gingivalis, and all mice were sampled 5 h post-infection by peritoneal lavage.

[10] = system: P. gingivalis; assay: I.p. challenge model: P. gingivalis CFU, NO2− and bacteremia; format: in vivo, mouse
Source text: All animal procedures were approved by the Institutional Animal Care and Use Committee and performed in compliance with established federal and state policies.

[11] = C5aRA 1 μM, U0126 10 μM, wortmannin 100 nM
[12] = pretreatment 1 μM C5aRA and/or 1 mM L-NAME or D-NAME, Pg with C5a 50 nM, 24 hours
[13] = 1 pg applied twice weekly, four times, starting 2 weeks after five oral infections
[14] = 1 μg C5aRA microinjection before each of five Pg infections, one week after last infection

Compound: Nc1ncnc2c1ncn2C1CCCO1 (stereo not shown) [SQ22536]
- reversal of the inhibitory C5a effect on nitric oxide [1]: reversed

Compound: PKI 6-22: peptide inhibitor of PKA
- reversal of the inhibitory C5a effect on nitric oxide [1]: reversed
- effect on synergistic C5a + P. gingivalis Ser9-phosphorylation of GSK3β [2]: inhibited

Compound: NC(N)=NCCC[C@H](NC(=O)COCC(c1ccccc1)c1ccccc1)C(=O)O [SB290157]
- reversal of the inhibitory effect of C5a^desArg on IL-12p70 [3]: did not influence

Compound: N#CC(=C(/N)Sc1ccccc1N)/C(C#N)=C(\N)Sc1ccccc1N [U0126]
- LPS-induced IL-12p70 without C5a [3]: appeared to up-regulate
- P. gingivalis-induced IL-12p70 without exogenous C5a [3, 11]: appeared to up-regulate
- reversal of C5a inhibition of P. gingivalis- or LPS-induced IL-12p70 [3, 11]: abrogated

Compound: Cn1cc(C2=C(c3ccc(Cl)cc3Cl)C(=O)NC2=O)c2ccccc21 [SB216763]
- P. gingivalis-induced nitric oxide production ([1]; SB216763 10 μM, 8-Br-cAMP 100 μM): mimicked the inhibitory C5a effect
- P. gingivalis-induced iNOS expression [4]: mimicked the inhibitory C5a effect

Compound: COC(=O)[C@@H](N)CCCNC(=N)N[N+](=O)[O-] [L-NAME, N(G)-nitro-L-arginine methyl ester]
- effect on C5a-protected P. gingivalis intracellular viability [5, 12]: mimicked C5a and overrode the C5aRA effect

Compound: acetylated phenylalanine-(ornithine-proline-(D)cyclohexylalanine-tryptophan-arginine) [C5aRA]
- Pg viable counts in chamber fluid [6]: reduced Pg viable counts
- effect on the synergistic C5a effect on P. gingivalis-induced cAMP [7]: totally abrogated
- effect on C5a-protected P. gingivalis intracellular viability [5, 12]: counteracted the protective effect of C5a
- KDP128-induced IL-12p70 in the absence of exogenously added C5a ([3]; C5aRA 1 μM): had no effect
- LPS-induced IL-12p70 without C5a [3, 11]: not seen
- P. gingivalis-induced IL-12p70 without exogenous C5a [3, 11]: significantly enhanced
- reversal of C5a inhibition of P. gingivalis- or LPS-induced IL-12p70 [3, 11]: completely reversed
- reversal of the inhibitory effect of C5a^desArg on IL-12p70 ([3]; C5a^desArg 50 nM, C5aRA 1 μM, A8^Δ71-73 1 μM, SB290157 5 μM): full reversal
- induction of IL-1beta mRNA in gingiva, therapeutic [8, 13]: significantly reversed induction
- induction of TNF-alpha mRNA in gingiva, therapeutic [8, 13]: significantly reversed induction
- induction of IL-1beta mRNA in gingiva, preventive [8, 14]: highly effective in inhibiting induction
- induction of TNF-alpha mRNA in gingiva, preventive [8, 14]: highly effective in inhibiting induction
- efficacy of 1 μg dose compared with 10-fold higher dose ([8]; IL-1beta and TNF-alpha mRNA, preventive): not significantly different
- IFN-gamma level in peritoneal fluid vs PBS-treated wild-type controls [9]: significantly higher levels
- IL-12p70 level in peritoneal fluid vs PBS-treated wild-type controls [9]: significantly higher levels
- IL-23 level in peritoneal fluid vs PBS-treated wild-type controls [9]: significantly higher levels
- induction of IL-1beta production in peritoneal fluid [9]: inhibited
- induction of IL-6 production in peritoneal fluid [9]: inhibited
- induction of TNF-alpha production in peritoneal fluid [9]: inhibited
- bacteremia (blood culture for P. gingivalis) ([10]; 24 hours post-infection): no bacteremia could be detected
- less P. gingivalis CFU in peritoneal lavage fluid compared to PBS control ([10]; C5aRA i.p. 25 μg/mouse, 24 h post-infection): about 2 log10 units
- reduction of P. gingivalis CFU in peritoneal lavage fluid vs control mice ([10]; C5aRA i.p. 1 mg/Kg body weight, 24 hours post-infection): > 95%
- nitric oxide production in peritoneal fluid relative to control mice ([10]; C5aRA i.p., 24 hours postinfection): elevated nitric oxide production

Compound: pertussis toxin
- effect on the synergistic C5a effect on P. gingivalis-induced cAMP [7]: Significant reversal

Compound: c1cc(CN2CCCNCCNCCCNCC2)ccc1CN1CCCNCCNCCCNCC1 [AMD3100]
- effect on the synergistic C5a effect on P. gingivalis-induced cAMP [7]: modestly attenuated

Compound: O=C(O)CN(CCOCCOCCN(CC(=O)O)CC(=O)O)CC(=O)O [EGTA]
- effect on the synergistic C5a effect on P. gingivalis-induced cAMP [7]: relatively minimal and statistically insignificant effect

Compound: O=S(=O)(NCCNC/C=C/c1ccc(Br)cc1)c1cccc2cnccc12 [H89]
- reversal of the inhibitory C5a effect on nitric oxide [1]: reversed

Compound: COc1cccc(-c2cc(=O)c3ccccc3o2)c1N [PD98059]
- effect on synergistic C5a + P. gingivalis Ser9-phosphorylation of GSK3β [2]: not

Compound: COC(=O)[C@H](N)CCCN=C(N)N[N+](=O)[O-] [D-NAME, N(G)-nitro-D-arginine methyl ester]
- effect on C5a-protected P. gingivalis intracellular viability [5]: had no effect

Compound: C/C=C(/C)C(=O)O[C@H]1C(C)=C2[C@H]([C@@H]1OC(=O)CCCCCCC)[C@@](C)(OC(C)=O)C[C@H](OC(=O)CCC)[C@@]1(O)[C@H]2OC(=O)[C@@]1(C)O [thapsigargin]
- effect on the synergistic C5a effect on P. gingivalis-induced cAMP [7]: abrogated
